Measured values from PubChem BioAssay (NCI).
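GI50 is the concentration that inhibits growth by half. TGI marks complete inhibition of growth.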

Legend:
Assay in all cases: NCI tumour cell line growth inhibition, 384-well format
786-0 renal = system: 786-0 renal
A498 renal = system: A498 renal
BT-549 breast = system: BT-549 breast
CAKI-1 renal = system: CAKI-1 renal
CCRF-CEM leukemia = system: CCRF-CEM leukemia
COLO 205 colon = system: COLO 205 colon
HCC-2998 colon = system: HCC-2998 colon
HCT-116 colon = system: HCT-116 colon
HCT-15 colon = system: HCT-15 colon
HL-60(TB) leukemia = system: HL-60(TB) leukemia
HOP-62 NSCLC = system: HOP-62 NSCLC
HOP-92 NSCLC = system: HOP-92 NSCLC
HT29 colon = system: HT29 colon
IGROV1 ovarian = system: IGROV1 ovarian
K-562 leukemia = system: K-562 leukemia
KM12 colon = system: KM12 colon
LOX IMVI melanoma = system: LOX IMVI melanoma
MALME-3M melanoma = system: MALME-3M melanoma
MCF7 breast = system: MCF7 breast
MDA-MB-231 breast = system: MDA-MB-231 breast
MDA-MB-435 melanoma = system: MDA-MB-435 melanoma
MOLT-4 leukemia = system: MOLT-4 leukemia
NCI-H226 lung = system: NCI-H226 lung
NCI-H23 lung = system: NCI-H23 lung
NCI-H322M lung = system: NCI-H322M lung
NCI-H522 lung = system: NCI-H522 lung
NCI/ADR-RES ovarian = system: NCI/ADR-RES ovarian
OVCAR-3 ovarian = system: OVCAR-3 ovarian
OVCAR-4 ovarian = system: OVCAR-4 ovarian
OVCAR-5 ovarian = system: OVCAR-5 ovarian
PC-3 prostate = system: PC-3 prostate
RPMI-8226 leukemia = system: RPMI-8226 leukemia
RXF 393 renal = system: RXF 393 renal
SF-268 CNS = system: SF-268 CNS
SF-539 CNS = system: SF-539 CNS
SK-MEL-2 melanoma = system: SK-MEL-2 melanoma
SK-MEL-28 melanoma = system: SK-MEL-28 melanoma
SK-MEL-5 melanoma = system: SK-MEL-5 melanoma
SK-OV-3 ovarian = system: SK-OV-3 ovarian
SNB-75 CNS = system: SNB-75 CNS
SR leukemia = system: SR leukemia
SW-620 colon = system: SW-620 colon
T-47D breast = system: T-47D breast
TK-10 renal = system: TK-10 renal
UACC-257 melanoma = system: UACC-257 melanoma
UACC-62 melanoma = system: UACC-62 melanoma
UO-31 renal = system: UO-31 renal

## C=CC(=O)Nc1cccc(Oc2nc(Nc3ccc(N4CCN(C)CC4)cc3)nc3ccsc23)c1
786-0 renal
  GI50: 1460 nM
  TGI: 2810 nM
A498 renal
  GI50: 1220 nM
  TGI: 2490 nM
BT-549 breast
  GI50: 1380 nM
  TGI: 2690 nM
CAKI-1 renal
  GI50: 833 nM
  TGI: 2150 nM
CCRF-CEM leukemia
  GI50: 1500 nM
  TGI: 2840 nM
COLO 205 colon
  GI50: 1830 nM
  TGI: 3250 nM
HCC-2998 colon
  GI50: 1700 nM
  TGI: 3090 nM
HCT-116 colon
  GI50: 1680 nM
  TGI: 3090 nM
HCT-15 colon
  GI50: 1560 nM
  TGI: 3030 nM
HL-60(TB) leukemia
  GI50: 1600 nM
  TGI: 2970 nM
HOP-62 NSCLC
  GI50: 2000 nM
  TGI: 4540 nM
HOP-92 NSCLC
  GI50: 1370 nM
  TGI: 2950 nM
HT29 colon
  GI50: 1740 nM
  TGI: 3160 nM
IGROV1 ovarian
  GI50: 1060 nM
  TGI: 2260 nM
K-562 leukemia
  GI50: 1380 nM
  TGI: 2720 nM
KM12 colon
  GI50: 1590 nM
  TGI: 3120 nM
LOX IMVI melanoma
  GI50: 1810 nM
  TGI: 3220 nM
MALME-3M melanoma
  GI50: 1760 nM
  TGI: 3160 nM
MCF7 breast
  GI50: 1550 nM
  TGI: 2960 nM
MDA-MB-231 breast
  GI50: 1700 nM
  TGI: 3330 nM
MDA-MB-435 melanoma
  GI50: 1780 nM
  TGI: 3200 nM
MOLT-4 leukemia
  GI50: 1530 nM
  TGI: 2890 nM
NCI-H226 lung
  GI50: 1570 nM
  TGI: 3880 nM
NCI-H23 lung
  GI50: 1940 nM
  TGI: 5370 nM
NCI-H322M lung
  GI50: 902 nM
  TGI: 3350 nM
NCI-H522 lung
  GI50: 334 nM
  TGI: 1410 nM
NCI/ADR-RES ovarian
  GI50: 1940 nM
  TGI: 4000 nM
OVCAR-3 ovarian
  GI50: 923 nM
  TGI: 2200 nM
OVCAR-4 ovarian
  GI50: 1690 nM
  TGI: 3130 nM
OVCAR-5 ovarian
  GI50: 2020 nM
  TGI: 5790 nM
PC-3 prostate
  GI50: 1700 nM
  TGI: 3120 nM
RPMI-8226 leukemia
  GI50: 1460 nM
  TGI: 2780 nM
RXF 393 renal
  GI50: 1230 nM
  TGI: 2490 nM
SF-268 CNS
  GI50: 1840 nM
  TGI: 4010 nM
SF-539 CNS
  GI50: 1750 nM
  TGI: 3150 nM
SK-MEL-2 melanoma
  GI50: 1610 nM
  TGI: 2970 nM
SK-MEL-28 melanoma
  GI50: 1740 nM
  TGI: 3140 nM
SK-MEL-5 melanoma
  GI50: 1840 nM
  TGI: 3250 nM
SK-OV-3 ovarian
  GI50: 1570 nM
  TGI: 4190 nM
SNB-75 CNS
  GI50: 1350 nM
  TGI: 2740 nM
SR leukemia
  GI50: 857 nM
  TGI: 1950 nM
SW-620 colon
  GI50: 1740 nM
  TGI: 3140 nM
T-47D breast
  GI50: 1500 nM
  TGI: 2840 nM
TK-10 renal
  GI50: 957 nM
  TGI: 2250 nM
UACC-257 melanoma
  GI50: 1520 nM
  TGI: 2870 nM
UACC-62 melanoma
  GI50: 1520 nM
  TGI: 2870 nM
UO-31 renal
  GI50: 1390 nM
  TGI: 2700 nM
